Laboratory results from ChEMBL document CHEMBL1201862, “PubChem BioAssay data set” (2004).
Calls of active or inactive are those of the source.

Columns and labels:
Beta-galactosidase = Beta-galactosidase (Escherichia coli, UniProt Q8VNN2); experiment: PubChem AID 485352; format: functional
[1] = target: T1, Type-1 angiotensin II receptor (Homo sapiens, UniProt P30556); experiment: antagonism of angiotensin II type 1 receptor – cell-based, uHTS hits, selectivity assay for APJ receptor antagonist project, dose response (AID 463214); format: functional;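 also: antagonist potency against angiotensin II stimulated AT1 response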
T1 sequence (P30556 whole entry): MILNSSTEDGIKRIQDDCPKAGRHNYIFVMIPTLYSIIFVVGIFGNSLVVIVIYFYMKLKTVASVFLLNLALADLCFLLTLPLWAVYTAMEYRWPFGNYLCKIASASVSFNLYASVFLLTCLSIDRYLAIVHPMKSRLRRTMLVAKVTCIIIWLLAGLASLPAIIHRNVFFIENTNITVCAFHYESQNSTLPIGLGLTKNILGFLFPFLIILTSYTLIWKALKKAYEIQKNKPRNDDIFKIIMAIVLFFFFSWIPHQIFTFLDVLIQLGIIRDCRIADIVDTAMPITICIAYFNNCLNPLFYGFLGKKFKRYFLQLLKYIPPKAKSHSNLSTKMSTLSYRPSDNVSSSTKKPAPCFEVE

[2] = Trypanosoma cruzi growth suppression in host cells – NIH3T3 host cells, beta-gal luminescence, confirmation (AID 2044); format: functional, cell-based;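 also: intracellular parasites grown in NIH/3T3 mouse fibroblasts as host cells; luminescent beta-galactosidase reporter signal from transgenic T. cruzi replicating inside host cells; inhibitors lower the luminescence signal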
[3] = target: T2, Corticotropin-releasing factor receptor 2/Corticotropin-releasing factor-binding protein (Homo sapiens, UniProt P24387+Q13324); experiment: activators of CRF receptor 2 with binding protein – uHTS hits, confirmation (AID 602473); format: functional; conditions: read-out: EC50_Mean
T2 sequence (Q13324 whole entry): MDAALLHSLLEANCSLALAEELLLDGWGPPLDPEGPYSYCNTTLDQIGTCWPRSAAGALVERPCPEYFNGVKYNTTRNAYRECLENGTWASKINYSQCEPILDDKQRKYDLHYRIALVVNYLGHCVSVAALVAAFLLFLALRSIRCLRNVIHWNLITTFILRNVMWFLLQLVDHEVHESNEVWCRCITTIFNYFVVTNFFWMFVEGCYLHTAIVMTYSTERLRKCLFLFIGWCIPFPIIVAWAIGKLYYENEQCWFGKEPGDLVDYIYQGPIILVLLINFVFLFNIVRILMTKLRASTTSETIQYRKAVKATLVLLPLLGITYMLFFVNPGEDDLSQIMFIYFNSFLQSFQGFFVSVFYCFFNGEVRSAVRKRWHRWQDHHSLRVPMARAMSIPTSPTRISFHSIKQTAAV
T2 sequence (P24387 whole entry): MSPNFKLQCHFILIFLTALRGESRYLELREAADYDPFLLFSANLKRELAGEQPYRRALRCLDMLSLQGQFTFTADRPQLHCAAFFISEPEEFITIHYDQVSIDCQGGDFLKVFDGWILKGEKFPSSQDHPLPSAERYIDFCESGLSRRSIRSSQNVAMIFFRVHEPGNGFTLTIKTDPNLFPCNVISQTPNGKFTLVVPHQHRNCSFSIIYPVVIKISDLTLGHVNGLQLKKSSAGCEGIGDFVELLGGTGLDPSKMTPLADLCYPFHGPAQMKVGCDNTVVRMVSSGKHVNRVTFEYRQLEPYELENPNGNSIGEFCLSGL

[4] = NIH3T3 cell viability loss – ATP luminescence, mouse fibroblasts, counter-screen, dose response (AID 2010); format: functional, cell-based;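 also: cells exposed to compound for about 90 hours before reading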
CHO = CHO cell viability loss, potency – luminescence, cytotoxicity control for TLR9-MyD88 binding inhibitor project, dose response (AID 588339); format: functional, cell-based, hamster; conditions: Cricetulus griseus;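 also: CHO cells stably coexpressing TLR9 and MyD88 fusions from primary screen; compound exposure lasted 48 hours before viability readout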
[5] = target: T3, Microphthalmia-associated transcription factor (Homo sapiens, UniProt O75030); experiment: reducers of TRPM1 reporter luminescence, concentration series – cell-based, SK-MEL-5, cherry-picked, set 3, MITF inhibitor project, dose response (AID 493073); format: functional;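 also: SK-MEL-5 melanoma cells with luciferase driven by the MITF target TRPM1 promoter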
T3 sequence (O75030 whole entry): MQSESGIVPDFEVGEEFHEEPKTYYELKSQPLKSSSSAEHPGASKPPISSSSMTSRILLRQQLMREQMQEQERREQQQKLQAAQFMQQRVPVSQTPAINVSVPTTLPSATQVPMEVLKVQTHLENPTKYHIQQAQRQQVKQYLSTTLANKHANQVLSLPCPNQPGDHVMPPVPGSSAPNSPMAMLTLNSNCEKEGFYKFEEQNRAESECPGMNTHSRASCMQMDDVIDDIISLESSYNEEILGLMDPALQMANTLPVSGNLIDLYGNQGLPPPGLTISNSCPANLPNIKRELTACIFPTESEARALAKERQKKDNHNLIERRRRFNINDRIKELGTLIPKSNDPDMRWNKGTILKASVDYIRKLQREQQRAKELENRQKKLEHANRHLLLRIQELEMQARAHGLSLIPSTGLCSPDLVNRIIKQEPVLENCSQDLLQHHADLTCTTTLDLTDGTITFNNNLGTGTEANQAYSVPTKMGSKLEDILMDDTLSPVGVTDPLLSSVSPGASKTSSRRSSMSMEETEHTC

[6] = Fluorescence-based cell-based high throughput dose response assay for inhibitors of the interaction of nucleotide-binding oligomerization domain containing 2 (NOD2) and the receptor-interacting serine-threonine kinase 2 (RIPK2).; format: functional; conditions: Homo sapiens
INS1 = experiment: INS-1E survival protection against cytokine death – cell-based, luminescence, retest, dose response (AID 449756); format: functional; conditions: Rattus norvegicus;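 also: cell death triggered by IL-1 beta plus TNF-alpha plus IFN-gamma mixture; protective hits raise ATP signal compared with cytokine alone wells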
[7] = Luminescence Cell-Based Dose Retest to Confirm Inhibitors of Cancer Stem Cells. [Related pubchem assays (depositor defined):AID2717, AID2721]; format: functional; conditions: Homo sapiens
Beta Lactamase = Beta Lactamase (Pseudomonas aeruginosa, UniProt Q932Y6); experiment: BLA reporter interference, concentration series – BLA reporter cells, FRET fluorescence, artefact control for TLR9-MyD88 binding inhibitor project, dose response (AID 588341); format: cell-based;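 also: cell based assay in CHO-K1 cells stably expressing beta-lactamase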
Beta Lactamase, sequence (Q932Y6 whole entry): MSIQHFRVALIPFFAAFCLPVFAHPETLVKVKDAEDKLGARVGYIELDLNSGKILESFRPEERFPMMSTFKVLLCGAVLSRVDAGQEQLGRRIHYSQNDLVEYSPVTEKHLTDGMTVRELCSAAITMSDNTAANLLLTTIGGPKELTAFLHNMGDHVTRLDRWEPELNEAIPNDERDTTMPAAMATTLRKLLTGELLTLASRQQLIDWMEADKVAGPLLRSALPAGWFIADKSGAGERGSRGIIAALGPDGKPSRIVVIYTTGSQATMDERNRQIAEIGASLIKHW

Caspase-3 = target: T4, Caspase-3 (Homo sapiens, UniProt P42574); format: functional;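 also: Dose-response selectivity test against caspase-3 for candidate inhibitors of sentrin-specific proteases (SENPs)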
T4 sequence (P42574 whole entry): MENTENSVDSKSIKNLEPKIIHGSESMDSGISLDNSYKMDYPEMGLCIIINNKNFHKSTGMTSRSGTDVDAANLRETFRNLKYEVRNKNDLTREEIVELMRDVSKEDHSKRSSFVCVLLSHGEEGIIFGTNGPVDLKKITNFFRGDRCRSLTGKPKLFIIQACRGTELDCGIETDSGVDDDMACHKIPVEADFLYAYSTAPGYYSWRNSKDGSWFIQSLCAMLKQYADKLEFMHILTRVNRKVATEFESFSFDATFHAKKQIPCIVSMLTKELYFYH

[8] = target: T5, Sentrin-specific protease 8 (Homo sapiens, UniProt Q96LD8); format: functional;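 also: luminescence read-out of SENP8 inhibition, dose-response confirmation following an ultra-high-throughput screen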
T5 sequence (Q96LD8 whole entry): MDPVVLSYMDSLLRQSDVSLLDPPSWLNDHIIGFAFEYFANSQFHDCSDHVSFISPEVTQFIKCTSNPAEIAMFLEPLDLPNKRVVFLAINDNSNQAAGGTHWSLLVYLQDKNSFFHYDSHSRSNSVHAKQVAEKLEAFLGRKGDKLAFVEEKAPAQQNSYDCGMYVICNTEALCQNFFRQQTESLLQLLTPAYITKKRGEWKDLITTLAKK

[9] = target: T6, Sentrin-specific protease 6 (Homo sapiens, UniProt Q9GZR1); format: functional;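 also: Luminescence-based dose-response confirmatory assay of SENP6 inhibition, following up an ultra-high-throughput screen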
T6 sequence (Q9GZR1 whole entry): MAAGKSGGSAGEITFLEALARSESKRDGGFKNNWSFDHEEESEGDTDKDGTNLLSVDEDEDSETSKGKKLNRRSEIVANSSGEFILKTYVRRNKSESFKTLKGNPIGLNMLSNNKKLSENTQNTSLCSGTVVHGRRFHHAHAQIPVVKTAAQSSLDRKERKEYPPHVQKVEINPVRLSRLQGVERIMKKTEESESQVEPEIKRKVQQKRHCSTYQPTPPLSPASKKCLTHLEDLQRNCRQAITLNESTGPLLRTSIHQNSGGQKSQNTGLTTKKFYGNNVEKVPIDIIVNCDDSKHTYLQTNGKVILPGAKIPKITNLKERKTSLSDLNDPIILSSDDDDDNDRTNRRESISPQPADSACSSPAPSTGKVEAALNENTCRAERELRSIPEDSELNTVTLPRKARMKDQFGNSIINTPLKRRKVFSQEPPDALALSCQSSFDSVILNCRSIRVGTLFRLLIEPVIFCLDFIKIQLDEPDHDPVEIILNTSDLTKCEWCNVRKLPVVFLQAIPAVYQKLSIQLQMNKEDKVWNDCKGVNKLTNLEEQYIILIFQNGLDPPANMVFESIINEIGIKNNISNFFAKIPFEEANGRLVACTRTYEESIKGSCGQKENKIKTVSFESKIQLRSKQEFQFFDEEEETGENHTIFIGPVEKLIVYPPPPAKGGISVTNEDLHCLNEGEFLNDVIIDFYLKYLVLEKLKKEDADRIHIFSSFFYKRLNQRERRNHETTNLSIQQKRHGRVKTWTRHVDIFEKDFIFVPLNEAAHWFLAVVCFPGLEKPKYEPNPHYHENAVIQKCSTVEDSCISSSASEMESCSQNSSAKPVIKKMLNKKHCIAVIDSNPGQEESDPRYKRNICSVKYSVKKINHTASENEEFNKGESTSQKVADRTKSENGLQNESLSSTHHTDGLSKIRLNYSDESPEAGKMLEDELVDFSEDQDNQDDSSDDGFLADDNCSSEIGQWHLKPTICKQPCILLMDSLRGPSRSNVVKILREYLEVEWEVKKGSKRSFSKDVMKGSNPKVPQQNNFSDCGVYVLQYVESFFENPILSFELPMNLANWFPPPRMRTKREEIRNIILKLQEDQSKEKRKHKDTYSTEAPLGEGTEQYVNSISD

[10] = target: T7, Sentrin-specific protease 7 (Homo sapiens, UniProt Q9BQF6); format: functional;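 also: Luminescence-based dose-response confirmation of ultra-high-throughput screening hits, measuring inhibition of SENP7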
T7 sequence (Q9BQF6 whole entry): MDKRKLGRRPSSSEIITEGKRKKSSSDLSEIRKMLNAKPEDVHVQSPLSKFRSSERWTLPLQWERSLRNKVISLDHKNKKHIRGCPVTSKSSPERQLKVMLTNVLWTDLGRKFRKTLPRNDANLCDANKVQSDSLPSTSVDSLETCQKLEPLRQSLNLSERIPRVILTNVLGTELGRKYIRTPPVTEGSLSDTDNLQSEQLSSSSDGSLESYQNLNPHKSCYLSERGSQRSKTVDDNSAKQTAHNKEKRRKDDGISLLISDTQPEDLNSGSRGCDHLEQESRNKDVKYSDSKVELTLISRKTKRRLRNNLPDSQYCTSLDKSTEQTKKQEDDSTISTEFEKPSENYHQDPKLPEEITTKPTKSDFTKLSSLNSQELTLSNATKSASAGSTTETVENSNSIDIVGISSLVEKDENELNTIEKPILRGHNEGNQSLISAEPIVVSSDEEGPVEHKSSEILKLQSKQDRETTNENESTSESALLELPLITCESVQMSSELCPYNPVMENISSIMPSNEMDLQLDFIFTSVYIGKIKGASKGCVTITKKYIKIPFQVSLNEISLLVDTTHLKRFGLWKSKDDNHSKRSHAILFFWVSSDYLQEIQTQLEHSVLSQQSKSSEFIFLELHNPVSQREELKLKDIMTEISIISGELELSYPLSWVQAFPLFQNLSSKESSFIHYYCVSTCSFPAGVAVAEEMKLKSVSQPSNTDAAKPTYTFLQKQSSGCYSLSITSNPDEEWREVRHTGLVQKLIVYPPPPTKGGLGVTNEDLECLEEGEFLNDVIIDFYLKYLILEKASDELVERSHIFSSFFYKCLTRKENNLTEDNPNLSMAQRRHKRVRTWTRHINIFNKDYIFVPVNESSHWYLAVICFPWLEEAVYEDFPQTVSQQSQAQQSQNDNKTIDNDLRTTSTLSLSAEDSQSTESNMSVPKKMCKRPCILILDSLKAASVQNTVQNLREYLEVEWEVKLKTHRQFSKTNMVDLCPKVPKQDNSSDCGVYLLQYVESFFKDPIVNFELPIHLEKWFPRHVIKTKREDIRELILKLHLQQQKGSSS

Beta-galactosidase, sequence (Q8VNN2 whole entry): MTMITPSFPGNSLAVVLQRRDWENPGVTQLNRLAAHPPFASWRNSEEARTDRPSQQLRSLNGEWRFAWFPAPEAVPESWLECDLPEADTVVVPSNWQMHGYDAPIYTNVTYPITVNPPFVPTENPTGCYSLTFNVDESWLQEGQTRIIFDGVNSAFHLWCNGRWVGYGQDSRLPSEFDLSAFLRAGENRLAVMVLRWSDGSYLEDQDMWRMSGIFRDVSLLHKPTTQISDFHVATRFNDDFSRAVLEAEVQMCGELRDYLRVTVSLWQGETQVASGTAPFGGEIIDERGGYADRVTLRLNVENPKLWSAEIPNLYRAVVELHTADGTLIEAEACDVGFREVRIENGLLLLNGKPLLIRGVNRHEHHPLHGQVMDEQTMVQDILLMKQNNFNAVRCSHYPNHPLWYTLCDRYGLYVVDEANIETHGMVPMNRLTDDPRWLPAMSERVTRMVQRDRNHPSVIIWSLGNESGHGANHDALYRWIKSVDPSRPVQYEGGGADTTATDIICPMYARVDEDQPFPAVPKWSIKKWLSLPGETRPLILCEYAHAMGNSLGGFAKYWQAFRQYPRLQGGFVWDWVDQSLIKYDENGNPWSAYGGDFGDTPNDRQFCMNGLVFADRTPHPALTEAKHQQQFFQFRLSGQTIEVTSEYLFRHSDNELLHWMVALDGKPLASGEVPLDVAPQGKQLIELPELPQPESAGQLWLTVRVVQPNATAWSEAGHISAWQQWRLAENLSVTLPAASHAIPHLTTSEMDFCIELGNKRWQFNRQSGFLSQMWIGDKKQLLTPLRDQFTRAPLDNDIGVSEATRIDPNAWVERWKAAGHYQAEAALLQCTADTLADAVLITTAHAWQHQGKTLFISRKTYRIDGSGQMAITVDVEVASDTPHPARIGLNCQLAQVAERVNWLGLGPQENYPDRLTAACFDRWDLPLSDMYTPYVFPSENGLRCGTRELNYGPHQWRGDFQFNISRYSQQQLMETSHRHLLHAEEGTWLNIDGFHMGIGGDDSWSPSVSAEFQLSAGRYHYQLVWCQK

IC50 (Caspase-3) | IC50 [9] | IC50 [10] | Structure (SMILES) | EC50 (Beta-galactosidase) | IC50 [1] | EC50 [2] | EC50 [3] | EC50 [4] | IC50 (CHO) | AC50 [5] | IC50 [6] | AC50 (INS1) | AC50 [7] | IC50 (Beta Lactamase) | IC50 [8]
 |  |  | Cc1ccc(C)c2nc3sc(C(=O)N4CCCc5ccccc54)c(N)c3cc12 | > 40 µM (inactive) | > 40 µM (not active) | 1.56 µM (active) | 8.83 µM (active) | > 60 µM (not active) |  |  |  |  |  |  | 
 |  |  | CCn1c(=O)c([N+](=O)[O-])c(Cl)c2ccccc21 | > 40 µM (inactive) | 2.22 µM (active) | 1.89 µM (active) |  | 15 µM (active) | 1.03 µM (active) | 7.21 µM (active) | 0.622 µM (active) | 5.02 µM (active) | 1.85 µM (active) | 28.6 µM (inactive) | 
 |  |  | COc1ccc(C(=O)CNc2cccc(F)c2)cc1 | > 40 µM (inactive) | 28 µM (not active) |  |  |  |  |  |  |  |  |  | 
5.39 µM (active) | 7.6 µM (active) | 5.32 µM (active) | Cc1ccc2oc(-c3ccccc3)nc2c1 |  |  |  |  |  |  |  |  |  |  |  | 39.3 µM (active)
